Assay results: patent publication US9212204B2, “Treatment of rett syndrome using glycyl-L-2-methylprolyl-L-glutamic acid” (priority 2011, dated 2015)
Non-standard residues stand in square brackets, D forms with d. Residues, ends and D or L forms follow the SMILES beside them. αMeP = C[C@@]1(C(=O)O)CCCN1

Tests used:
MeCP2 deficient mice = assay: Seizure activity, electroencephalographic recordings; settings: mouse, in vivo
Description: Because seizures are a prominent, hazardous and a difficult to treat aspect of Rett Syndrome, we determine the effects of G-2MePE on seizure activity in MeCP2 deficient animals. G-2-MePE can be effective in treating seizure activity in animals with neurodegenerative disease (U.S. Pat. No. 7,714,020). Therefore, we carry out experiments to determine whether G-2-MePE can also treat seizure activity in MeCP2 deficient mice. Electroencephalograpic recordings of wild-type mice and MeCP2 deficient mice treated with either saline or G-2-MePE are obtained using methods described in U.S. Pat. No. 7,714,020.

[1] = tested on: PCNA positive cells in the subventricular zone (SVZ); assay: PCNA staining, neuroblast proliferation in the subventricular zone; assay type: in vivo, rat; settings: for number of PCNA positive cells in the SVZ: 3 days after treatment
Protocol: To carry out these studies, tissues were fixed and embedded in paraffin and sections obtained using standard methods. Coronal sections (6 μm) containing the level of the hippocampus were cut and mounted on chrome-alum-coated slides for staining. The sections were deparaffinized in xylene, dehydrated in a series of ethanol and incubated in 0.1 M phosphate buffered saline (PBS).
Primary antibodies against glial fibrillary acidic protein (GFAP) and proliferating cell nuclear antigen (PCNA) were used to mark reactive glial cells and cells undergoing apoptosis and proliferation, respectively. For antigen unmasking (caspase-3 and PCNA staining), sections were heated in 10 mM sodium citrate buffer (pH 6.0) for 1 min at high power. All sections were pretreated with 1% […] in 50% methanol for 30 min to quench the endogenous peroxidase activity. Then either 1.5% normal horse serum or 2.5% normal sheep serum in PBS was applied for 1 h at room temperature to block nonspecific background staining. The sections were then incubated with following primary antibodies: monoclonal mouse anti-GFAP antibody (Sigma, St. Louis, Mo., U.S.A. diluted 1:500); mouse anti-PCNA antibody (DAKA, A/S, Denmark, diluted 1:100). After incubation with primary antibodies at 4° C. for 2 d (except for PCNA staining which was incubated overnight) the sections were incubated with biotinylated horse anti-mouse or goat anti-rabbit secondary antibody (1:200, Sigma) at 4° C. overnight. The ExtrAvidin™ (Sigma, 1:200), which had been prepared 1 h before use, was applied for 3 h at room temperature, and then reacted in 0.05% 3,3-diaminobenzidine (DAB) and PBS to produce a brown reaction product. Sections were dehydrated in a series of alcohols to xylene and coverslipped with mounting medium.
Immunohistochemical staining was performed on brain samples taken from both control and G-2-MePE treated groups of young (4 months old), middle-aged (9 months old) and aged rats (18 months old).
Control sections were processed in the same way except the primary antibody was omitted from the incubation solution. The number of PCNA positive cells was counted in the subventricular zone and the GFAP positive cells was scored in the cerebral cortex.
The subventricular zone (SVZ) and the dentate gyrus (DG) are two brain regions hosting adult neurogenesis. […]
Eighteen month old male rats were treated intraperitoneally with single does of G2-MePE (doses of either 0, 0.012, 0.12. 1.2, 12 mg/kg). […] The number of PCNA positive cells was counted in the SVZ and the number of cells was then averaged as cells/mm depending on the length of ventricle wall used for counting (FIG. 19A). […]

central nervous system = settings: after oral administration; cited from earlier work

Structure (SMILES): C[C@@]1(C(=O)N[C@@H](CCC(=O)O)C(=O)O)CCCN1C(=O)CN [Example G-2-MePE, Glycyl-L-2-methylprolyl-L-glutamic acid] (H-Gly-[αMeP]-Glu-OH)
- motor seizures (MeCP2 deficient mice): effective in decreasing
- non-convulsive seizures (MeCP2 deficient mice): effective in decreasing
- number of PCNA positive cells in the SVZ ([1]; 1.2 mg/kg i.p., 9 month old rats, p<0.005): significant increase
- dose dependence of effect on neurogenesis ([1]; 0.012-12 mg/kg single i.p. dose, 18 month old rats): dose-dependent effect
- number of PCNA positive cells in the SVZ ([1]; 12 mg/kg single i.p. dose, 18 month old rats, vs vehicle p<0.05): significant increase
- PCNA and doublecortin staining ([1]; highest dose, vs vehicle treated rat, FIG. 19B): increase
- activity in the central nervous system (central nervous system): active
